Measurements as given in ChEMBL document CHEMBL4433263, “Tapping the therapeutic potential of protein tyrosine phosphatase 4A with small molecule inhibitors” (Bioorg Med Chem Lett, 2019).

Tests used:
[1] = biological target: T1, Tyrosine-protein phosphatase non-receptor type 1 (Homo sapiens, UniProt P18031); assay: Inhibition of human PTP1B assessed as reduction in hydrolysis using DIFMUP as substrate incubated for 30 mins in presence of DTT by Fluorescence based method
T1 sequence (P18031 whole entry): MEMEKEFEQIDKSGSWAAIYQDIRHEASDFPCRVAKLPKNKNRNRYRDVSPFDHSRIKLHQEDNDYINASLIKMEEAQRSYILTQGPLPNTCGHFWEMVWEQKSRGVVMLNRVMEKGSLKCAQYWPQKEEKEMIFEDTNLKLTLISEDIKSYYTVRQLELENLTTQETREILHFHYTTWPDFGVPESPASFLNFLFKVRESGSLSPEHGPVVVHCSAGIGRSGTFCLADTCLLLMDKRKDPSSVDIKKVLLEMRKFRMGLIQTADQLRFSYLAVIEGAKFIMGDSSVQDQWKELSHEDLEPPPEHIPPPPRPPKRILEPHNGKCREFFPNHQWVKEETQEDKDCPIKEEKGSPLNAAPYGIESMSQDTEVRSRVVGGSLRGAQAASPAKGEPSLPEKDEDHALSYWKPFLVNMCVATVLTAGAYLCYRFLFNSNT

[2] = biological target: T2, Protein tyrosine phosphatase type IVA 1 (Homo sapiens, UniProt Q93096); assay: Inhibition of PTP4A1 (unknown origin)
T2 sequence (Q93096 whole entry): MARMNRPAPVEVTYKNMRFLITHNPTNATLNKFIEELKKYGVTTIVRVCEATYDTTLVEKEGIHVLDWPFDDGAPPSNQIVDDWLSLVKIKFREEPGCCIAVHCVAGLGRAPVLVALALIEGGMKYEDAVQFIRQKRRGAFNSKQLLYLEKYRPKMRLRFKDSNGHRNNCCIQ

[3] = biological target: Protein tyrosine phosphatase type IVA 3 (Homo sapiens, UniProt O75365); assay: Inhibition of PTP4A3 (unknown origin)
[4] = biological target: T3, Protein tyrosine phosphatase type IVA 2 (Homo sapiens, UniProt Q12974); assay: Inhibition of PTP4A2 (unknown origin)
T3 sequence (Q12974 whole entry): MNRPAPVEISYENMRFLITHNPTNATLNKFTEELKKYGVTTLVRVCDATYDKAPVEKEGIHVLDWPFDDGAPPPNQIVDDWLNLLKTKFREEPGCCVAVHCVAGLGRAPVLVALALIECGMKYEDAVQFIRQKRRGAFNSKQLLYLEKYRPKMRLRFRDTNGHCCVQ

Sequence of Protein tyrosine phosphatase type IVA 3 (O75365 whole entry): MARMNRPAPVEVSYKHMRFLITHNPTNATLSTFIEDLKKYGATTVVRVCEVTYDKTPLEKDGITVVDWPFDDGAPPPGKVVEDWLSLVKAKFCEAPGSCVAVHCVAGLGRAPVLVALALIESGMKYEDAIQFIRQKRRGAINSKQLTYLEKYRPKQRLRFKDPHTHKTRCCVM

Compound	IC50 [1]	IC50 [2]	IC50 [3]	IC50 [4]
N=C1C(=O)NC(=O)c2cc(-c3ccccc3)sc21	> 80000 nM			
Cc1cc2c(cc1C)CN(c1cccc(C(=O)N/N=C/c3ccc(C(=O)O)cc3)c1)C2		> 20000 nM		
N=C(N)c1ccc(OCCCCCOc2ccc(C(=N)N)cc2)cc1 [PENTAMIDINE]		300 nM	300 nM	300 nM
